Results published in patent publication US11247947B2, “Method of high-pressure purification of [f-18]FEONM” (Institute of Nuclear Energy Research, Atomic Energy …, priority 2019, dated 2022).

Experiments:
[1] = test system: P301S/PS19 transgenic mice; experiment: brain uptake biodistribution of [F-18]FEONM in P301S/PS19 transgenic mice; format: in vivo; conditions: 12~13 month-old P301S/PS19 transgenic mice; product purified through an alumina solid-phase extraction column; FIG. 2
[2] = shake-flask lipophilicity (Log P) detection; format: physicochemical; conditions: for Log P: shake-flask gold standard detection
Description: Besides, the present invention further designs a novel naphthol analogue, [F-18]FEONM, with lipophilicity increased. This is consistent with the concept of the structure design for the present invention. By adding a —C2H4O— functional group to a F-18 end, the lipophilicity of [F-18]FEONM is increased to obtain a potential novel brain imaging agent. The present invention develops the high-pressure isolation and purification to achieve the purpose of purification of [F-18]FEONM without toxic compounds.

Row | Structure (SMILES) | brain uptake biodistribution ratios (result in words) [1] | lipophilicity compared with [F-18]FDDNP ([2]; same shake-flask gold standard detection) | Log P [2]
1 | CC(=C(C#N)C#N)c1ccc2cc(N(C)CCOCCF)ccc2c1 [[F-18]FEONM] | effective to Alzheimer disease stages | higher than [F-18]FDDNP | 2.20 ± 0.17
2 | CC(=C(C#N)C#N)c1ccc2cc(N(C)CC[18F])ccc2c1 [[F-18]FDDNP, reference compound] | – | – | 1.93 ± 0.10
